Assay results as given in DBAASP.
In brackets after ≈: the same amount, converted by molar mass. Values belong to the compound of their own block, whether it stands above or below them.

Legend:
Assay in all cases: ≥ marks a high value that may be exact or a test limit, other limits are often not marked, values filed in µg/mL are converted to µM
Aeromonas hydrophila = system: Aeromonas hydrophila
Vibrio harveyi = system: Vibrio harveyi
[1] = system: Acinetobacter baumannii ATCC BAA-747
[2] = system: Enterococcus faecium ATCC 700221
[3] = system: Escherichia coli ATCC 25922
[4] = system: Klebsiella pneumoniae ATCC 700603
[5] = system: Pseudomonas aeruginosa ATCC 27853
[6] = system: Salmonella enterica ATCC 6539
[7] = system: Staphylococcus aureus ATCC 43300
Escherichia coli = system: Escherichia coli
[8] = system: Salmonella enterica subsp. enterica serovar Enteritidis
Salmonella sp. = system: Salmonella sp.
[9] = system: Staphylococcus aureus ATCC 29213
Yersinia enterocolitica = system: Yersinia enterocolitica
[10] = system: Burkholderia cepacia ATCC 25416
Escherichia coli UB1005 = system: Escherichia coli UB1005
[11] = system: Pseudomonas aeruginosa H547
[12] = system: Pseudomonas aeruginosa H744
[13] = system: Pseudomonas aeruginosa K799
[14] = system: Pseudomonas aeruginosa Z61
[15] = system: Salmonella enterica subsp. enterica serovar Typhimurium ATCC 14028s
[16] = system: Acinetobacter baumannii LMG 01041
[17] = system: Escherichia coli LMG 15862
[18] = system: Klebsiella aerogenes LMG 02094
[19] = system: Klebsiella pneumoniae LMG 20218
[20] = system: Pseudomonas aeruginosa LMG 6395
Acinetobacter baumannii = system: Acinetobacter baumannii
[21] = system: Bacillus cereus ATCC 11778
[22] = system: Enterococcus faecalis ATCC 29212
Escherichia coli O157:H7 = system: Escherichia coli O157:H7
[23] = system: Listeria monocytogenes 10403s
[24] = system: Salmonella enterica subsp. enterica serovar Typhimurium ATCC 13311
[25] = system: Shigella sonnei ATCC 11060
[26] = system: Staphylococcus aureus ATCC 25923
[27] = system: Staphylococcus epidermidis ATCC 12228
Vibrio cholerae O1 Inaba = system: Vibrio cholerae O1 Inaba
[28] = system: Bifidobacterium longum subsp. infantis
Staphylococcus aureus = system: Staphylococcus aureus
[29] = system: Cryptococcus neoformans ATCC 32264
[30] = system: Escherichia coli NCTC 10418
[31] = system: Staphylococcus aureus NCTC 12981

Compound: NCC(=O)NCC(=O)N[C@@H](Cc1cnc[nH]1)C(=O)NCC(=O)N[C@@H](Cc1c[nH]c2ccccc12)C(=O)N[C@@H](CCCN=C(N)N)C(=O)N[C@@H](Cc1c[nH]c2ccccc12)C(=O)N[C@@H](Cc1ccc(O)cc1)C(=O)N[C@@H](CS)C(=O)N[C@@H](CCCN=C(N)N)C(N)=O [GGHGWRWYCR]
- MIC [1]: 25 µM (≈ 31.9 µg/mL)
- MIC [2]: 25 µM (≈ 31.9 µg/mL)
- MIC [3]: 3 µM (≈ 3.83 µg/mL)
- MIC [4]: 25 µM (≈ 31.9 µg/mL)
- MIC [5]: 25 µM (≈ 31.9 µg/mL)
- MIC [6]: 6 µM (≈ 7.66 µg/mL)
- MIC [7]: 3 µM (≈ 3.83 µg/mL)

Compound: CC(C)C[C@H](NC(=O)[C@H](CC(N)=O)NC(=O)[C@@H]1CCCN1C(=O)[C@@H](N)CCCN=C(N)N)C(=O)N[C@@H](Cc1cnc[nH]1)C(=O)N1CCC[C@H]1C(=O)N[C@@H](CO)C(=O)O [RPNLHPS]
- MIC [28]: ≥ 3660 µM
- MIC (Escherichia coli): 3660 µM (≈ 3000 µg/mL)
- MIC (Staphylococcus aureus): 3660 µM (≈ 3000 µg/mL)

Compound: NCCCC[C@H](NC(=O)[C@H](CCCCN)NC(=O)[C@H](CCC(N)=O)NC(=O)[C@@H](N)CCCN=C(N)N)C(N)=O [RQKK]
- MIC [29]: ≥ 100 µM

Compound: NC(=O)CC[C@H](NC(=O)[C@H](CCCN=C(N)N)NC(=O)[C@H](CCCN=C(N)N)NC(=O)[C@@H](N)Cc1c[nH]c2ccccc12)C(=O)N[C@@H](CCCN=C(N)N)C(=O)N[C@@H](Cc1c[nH]c2ccccc12)C(N)=O [WRRQRW]
- MIC [30]: ≥ 130 µM
- MIC [31]: ≥ 130 µM

More lines, main results first:

- MIC (Aeromonas hydrophila): 16 µM (≈ 39.5 µg/mL)
- MIC (Vibrio harveyi): 8 µM (≈ 19.8 µg/mL)
Compound: CC[C@H](C)[C@H](NC(=O)[C@H](C)NC(=O)[C@H](CCCN=C(N)N)NC(=O)[C@H](Cc1cnc[nH]1)NC(=O)[C@@H](NC(=O)[C@H](C)NC(=O)[C@H](CCCN=C(N)N)NC(=O)[C@@H](NC(=O)CNC(=O)[C@H](Cc1cnc[nH]1)NC(=O)[C@H](CO)NC(=O)[C@@H](NC(=O)[C@H](Cc1c[nH]c2ccccc12)NC(=O)CNC(=O)[C@@H](NC(=O)[C@@H](NC(=O)[C@H](Cc1cnc[nH]1)NC(=O)[C@H](Cc1cnc[nH]1)NC(=O)[C@@H](NC(=O)[C@@H](N)Cc1ccccc1)[C@@H](C)CC)[C@@H](C)CC)[C@@H](C)CC)[C@@H](C)CC)C(C)C)[C@@H](C)CC)C(=O)N[C@@H](Cc1cnc[nH]1)C(N)=O [FIHHIIGWISHGVRAIHRAIH]

- MIC [3]: > 50 µM
- MIC (Escherichia coli): 25 µM (≈ 56.1 µg/mL)
- MIC [5]: > 50 µM
- MIC [8]: 25 µM (≈ 56.1 µg/mL)
- MIC (Salmonella sp.): 25 µM (≈ 56.1 µg/mL)
- MIC [9]: > 50 µM
- MIC [7]: > 50 µM
- MIC (Yersinia enterocolitica): ≥ 50 µM
Compound: CC[C@H](C)[C@H](NC(=O)[C@H](CCCCN)NC(=O)[C@@H](NC(=O)[C@H](Cc1c[nH]c2ccccc12)NC(=O)[C@H](Cc1ccccc1)NC(=O)[C@H](CCC(N)=O)NC(=O)[C@H](CC(N)=O)NC(=O)[C@H](CCCN=C(N)N)NC(=O)[C@H](CCCN=C(N)N)NC(=O)[C@H](CCSC)NC(=O)[C@H](CCCCN)NC(=O)[C@H](Cc1c[nH]c2ccccc12)NC(=O)[C@H](CCCCN)NC(=O)[C@@H](N)CCCCN)[C@@H](C)CC)C(=O)N[C@@H](CCC(N)=O)C(=O)N[C@@H](CCCN=C(N)N)C(N)=O [KKWKMRRNQFWIKIQR]

- MIC [10]: 20.9 µM (≈ 64 µg/mL)
- MIC (Escherichia coli UB1005): 0.652 µM (≈ 2 µg/mL)
- MIC [11]: 0.652 µM (≈ 2 µg/mL)
- MIC [12]: 0.326 µM (≈ 1 µg/mL)
- MIC [13]: 1.96 µM (≈ 6 µg/mL)
- MIC [14]: 1.63 µM (≈ 5 µg/mL)
- MIC [15]: 1.3 µM (≈ 4 µg/mL)
Compound: CC[C@H](C)[C@H](NC(=O)CNC(=O)[C@@H](NC(=O)[C@H](CCCCN)NC(=O)[C@H](CCCCN)NC(=O)[C@H](Cc1ccccc1)NC(=O)[C@H](CCCCN)NC(=O)[C@H](Cc1c[nH]c2ccccc12)NC(=O)[C@@H](N)CCCCN)[C@@H](C)CC)C(=O)NCC(=O)N[C@@H](C)C(=O)N[C@H](C(=O)N[C@@H](CC(C)C)C(=O)N[C@@H](CCCCN)C(=O)N[C@H](C(=O)N[C@@H](CC(C)C)C(=O)N[C@H](C(=O)N[C@H](C(=O)NCC(=O)N[C@@H](CC(C)C)C(=O)N1CCC[C@H]1C(=O)N[C@@H](C)C(=O)N[C@@H](CC(C)C)C(=O)N[C@@H](CCCCN)C(=O)N[C@@H](CC(C)C)C(=O)N[C@H](C(=O)N[C@@H](CC(C)C)C(=O)N[C@@H](CCCCN)C(=O)O)[C@@H](C)O)[C@@H](C)O)[C@@H](C)O)C(C)C)C(C)C [KWKFKKIGIGAVLKVLTTGLPALKLTLK]

- MIC [16]: ≥ 256 µM
- MIC [17]: 16 µM (≈ 24.8 µg/mL)
- MIC [18]: ≥ 256 µM
- MIC [19]: ≥ 256 µM
- MIC [20]: 16 µM (≈ 24.8 µg/mL)
Compound: CC[C@H](C)[C@H](NC(=O)[C@H](CCCN=C(N)N)NC(=O)[C@H](CCCCN)NC(=O)[C@H](CCCN=C(N)N)NC(=O)[C@@H](NC(=O)[C@@H](N)CCCN=C(N)N)[C@@H](C)CC)C(=O)N[C@@H](CCCCN)C(=O)N[C@@H](CCCCN)C(=O)N[C@@H](Cc1c[nH]c2ccccc12)C(=O)N[C@@H](CC(C)C)C(=O)N[C@@H](CCCN=C(N)N)C(N)=O [RIRKRIKKWLR]

- MIC (Acinetobacter baumannii): ≥ 133 µM
- MIC [21]: ≥ 133 µM
- MIC [22]: > 133 µM
- MIC [3]: > 133 µM
- MIC (Escherichia coli O157:H7): ≥ 133 µM
- MIC [23]: ≥ 133 µM
- MIC [5]: > 133 µM
- MIC [24]: ≥ 133 µM
- MIC [25]: ≥ 133 µM
- MIC [26]: > 133 µM
- MIC [27]: > 133 µM
Compound: CC[C@H](C)[C@H](NC(=O)[C@H](CCCN=C(N)N)NC(=O)[C@H](CCCCN)NC(=O)[C@H](CCCCN)NC(=O)[C@@H](NC(=O)[C@H](CCCCN)NC(=O)[C@H](CCC(=O)O)NC(=O)[C@H](CCCCN)NC(=O)[C@@H](N)CCCN=C(N)N)[C@@H](C)CC)C(=O)NCC(=O)N[C@@H](CCCCN)C(=O)N[C@H](C(=O)N[C@@H](CC(=O)O)C(=O)N[C@@H](CCCN=C(N)N)C(=O)N[C@@H](CC(C)C)C(N)=O)[C@@H](C)CC [RKEKIKKRIGKIDRL]
- MIC (Vibrio cholerae O1 Inaba): ≥ 133 µM
